According to publication PMC3530165 (Chemistry & biology, 2012):
Converted amounts (≈) assume the structure as drawn. Like-named read-outs stand apart in the source and are kept apart here.

How the values were obtained:
ICL [1] = target: T1, ICL (Mycobacterium tuberculosis, UniProt P9WKK7); conditions: read-out: IC50 against ICL; ref Muñoz-Elías and McKinney, 2005; cited from earlier work
T1 sequence (P9WKK7 1-428): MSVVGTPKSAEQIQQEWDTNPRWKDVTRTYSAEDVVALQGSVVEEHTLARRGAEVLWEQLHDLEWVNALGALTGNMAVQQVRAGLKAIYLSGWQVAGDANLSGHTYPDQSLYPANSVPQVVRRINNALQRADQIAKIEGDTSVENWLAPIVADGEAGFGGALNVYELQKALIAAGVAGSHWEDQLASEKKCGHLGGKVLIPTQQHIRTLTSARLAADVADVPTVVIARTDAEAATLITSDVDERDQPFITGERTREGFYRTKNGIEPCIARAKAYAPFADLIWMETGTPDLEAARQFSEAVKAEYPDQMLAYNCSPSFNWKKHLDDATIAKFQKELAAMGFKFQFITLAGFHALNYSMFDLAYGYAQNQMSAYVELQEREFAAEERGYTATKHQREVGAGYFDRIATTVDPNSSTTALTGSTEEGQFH

mc^2-7000 Mtb = assay: MABA MIC99 determination, mc^2-7000 strain; type: cell-based, Mycobacterium tuberculosis; conditions: for MIC99 mc^2-7000 Mtb acetate: M9 media with acetate; for MIC99: Mycobacterium tuberculosis
[2] = type: in vitro ADME; conditions: equilibrium dialysis
H37Rv = assay: MABA MIC99 determination, H37Rv strain; type: cell-based, Mycobacterium tuberculosis
UV absorbance peak = UV absorbance peak in solution
[3] = Compound stability in solution; conditions: stability in cell growth media or buffer solutions
M. tuberculosis = type: in vivo; conditions: target dose 30 mg/kg, once a day, 9 days post-infection
ICL [4] = target: T1, ICL; assay: Isocitrate lyase; type: biochemical; conditions: single concentration point of 40 μg/ml
[5] = read-out: MIC99 mc^2-7000 Mtb acetate
[6] = read-out: MIC99 mc^2-7000 Mtb dextrose

Question: With `O=C(O)CC[N+](=O)[O-]` [3-nitropropionate] as the compound, how does the IC50 (ICL [1]) read?
Answer: 3 µM

Question: Which “MIC99 mc^2-7000 Mtb dextrose” value (mc^2-7000 Mtb) does the source give for `Cc1ccccc1C(=O)CC(=O)C(=O)O` [Compound 1] here?
Answer: 200 µM (≈ 41.2 µg/mL)

Question: And the “MIC99 mc^2-7000 Mtb acetate” value (mc^2-7000 Mtb)?
Answer: >200 µM

Question: What about the “Mouse plasma protein binding” value [2] of the same compound?
Answer: 70.7 ± 1.8%

Question: And the “H37Rv MIC99 on acetate” value (H37Rv; acetate)?
Answer: 16 µM

Question: And the “H37Rv MIC99 on dextrose” value (H37Rv; dextrose)?
Answer: 31 µM

Question: What about the λmax (UV absorbance peak) of the same compound?
Answer: 326 nM

Question: What about the Half-life [3] of the same compound?
Answer: 720 h

Question: With `O=C(O)C(=O)CC(=O)c1ccccc1F` [Compound 2] as the compound, how does the “MIC99 mc^2-7000 Mtb dextrose” value (mc^2-7000 Mtb) read?
Answer: 200 µM (≈ 42 µg/mL)

Question: What about the “MIC99 mc^2-7000 Mtb acetate” value (mc^2-7000 Mtb) of the same compound?
Answer: >200 µM

Question: What about the λmax (UV absorbance peak) of the same compound?
Answer: 333 nM

Question: What about the Half-life [3] of the same compound?
Answer: 288 h

Question: Which “MIC99 mc^2-7000 Mtb dextrose” value (mc^2-7000 Mtb) does the source give for `O=C(O)C(=O)CC(=O)c1ccccc1Cl` [Compound 3] here?
Answer: 200 µM (≈ 45.3 µg/mL)

Question: What about the “MIC99 mc^2-7000 Mtb acetate” value (mc^2-7000 Mtb) of the same compound?
Answer: >200 µM

Question: What about the λmax (UV absorbance peak) of the same compound?
Answer: 324 nM

Question: And the Half-life [3]?
Answer: 840 h

Question: Which “MIC99 mc^2-7000 Mtb dextrose” value (mc^2-7000 Mtb) does the source give for `O=C(O)C(=O)CC(=O)c1cccc(Cl)c1` [Compound 6] here?
Answer: 25 µM (≈ 5.67 µg/mL)

Question: What about the “MIC99 mc^2-7000 Mtb acetate” value (mc^2-7000 Mtb) of the same compound?
Answer: 25 µM (≈ 5.67 µg/mL)

Question: What about the λmax (UV absorbance peak) of the same compound?
Answer: 341 nM

Question: What about the Half-life [3] of the same compound?
Answer: 170 h

Question: What does the source list for `Cc1ccc(C(=O)CC(=O)C(=O)O)cc1` [Compound 8]?
Answer: MIC99 mc^2-7000 Mtb dextrose (mc^2-7000 Mtb): 100 µM (≈ 20.6 µg/mL); MIC99 mc^2-7000 Mtb acetate (mc^2-7000 Mtb): 50 µM (≈ 10.3 µg/mL); λmax (UV absorbance peak): 340 nM; Half-life [3]: 190 h

Question: Which “MIC99 mc^2-7000 Mtb dextrose” value (mc^2-7000 Mtb) does the source give for `O=C(O)C(=O)CC(=O)c1ccc(Br)cc1` [Compound 9] here?
Answer: 25 µM (≈ 6.78 µg/mL)

Question: And the “MIC99 mc^2-7000 Mtb acetate” value (mc^2-7000 Mtb)?
Answer: 50 µM (≈ 13.6 µg/mL)

Question: And the λmax (UV absorbance peak)?
Answer: 345 nM

Question: What about the Half-life [3] of the same compound?
Answer: 170 h

Question: Which “Decrease in log10 CFU in lungs” value (M. tuberculosis) does the source give for `COc1c(N2C[C@@H]3CCCN[C@@H]3C2)c(F)cc2c(=O)c(C(=O)O)cn(C3CC3)c12` [Moxifloxacin] here?
Answer: 3.07 log10 CFU

Question: With `O=C(O)/C(O)=C/C(=O)c1ccccc1` [PDKA, (Z)-2-hydroxy-4-oxo-4-phenylbut-2-enoic acid] as the compound, how does the “activity against ICL” value (ICL [4]) read?
Answer: inactive

Question: What about the Half-life (physchem) of the same compound?
Answer: ~72 h

Question: What about the MIC99 (mc^2-7000 Mtb; [5]) of the same compound?
Answer: 50 µM (≈ 9.61 µg/mL)

Question: What about the MIC99 (mc^2-7000 Mtb; [6]) of the same compound?
Answer: 25 µM (≈ 4.8 µg/mL)

Question: What about the λmax (UV absorbance peak) of the same compound?
Answer: 340 nM

Question: What does the source list for `CO[C@H]1/C=C/O[C@@]2(C)Oc3c(C)c(O)c4c(O)c(c(/C=N/N5CCN(C)CC5)c(O)c4c3C2=O)NC(=O)/C(C)=C\C=C\[C@H](C)[C@H](O)[C@@H](C)[C@@H](O)[C@@H](C)[C@H](OC(C)=O)[C@@H]1C` [Rifampicin, reference compound]?
Answer: MIC99 (mc^2-7000 Mtb; [5]): 0.25 µM (≈ 0.206 µg/mL); MIC99 (mc^2-7000 Mtb; [6]): 0.125 µM (≈ 0.103 µg/mL)
